The record followed here is US20240343753A1, “THERAPEUTIC COMPOUNDS” (Regents of the University of Minnesota, priority 2023, published 2024).

As usually defined, the IC50 is the midpoint of a concentration-inhibition curve.

One assay deals with K562 cells. Briefly: 5hmC dot blot in K562 cells treated with inhibitor. Type of assay: cell-based, human. To be noted: 5 μM compound, 24 hours, genomic DNA dot blot, normalized to DMSO. Here is the method: Cells were grown in MEM media supplemented with 10% FBS (Gibco by Life Technologies TM, #16140-071) and AntibioticAntimycotic (Gibco by Life Technologies TM, #15240062) at 37° C. under 5% CO2. Solutions of inhibitors were prepared in dimethyl sulfoxide (DMSO) were incubated with cells at the specific concentration and duration prior to collection and extraction of genomic DNA.
For cellular assays, genomic DNA was extracted using DNA Blood/Tissue Kit, denatured, and subjected to dot blotting analysis using antibody against 5hmC (Active Motif, #39769) as previously described.^22 Briefly, 2 μg of purified DNA was denatured at 100° C. and mixed 1:1 with 2M NaOAc. DNA was loaded to the membrane, washed, and blocked with 5% NFM. Primary antibody for 5-hmC was incubated overnight and detected by fluorescence. The DNA spotted membrane was then stained with 0.02% methylene blue in 0.5 M sodium acetate (pH 5.0) for DNA loading control. The same protocol was followed for in vitro assays.
K562 cells, a TET proficient leukemia model, were treated with 5 μM of respective compound for 24 hours. Genomic DNA was extracted and 5hmC levels were quantified via dot blot (FIG. 1A and FIG. 1B).

The target in assay [1] is T1, recombinant human TET1 catalytic domain (Homo sapiens, UniProt Q8NFU7).
T1 construct: enzymatically active catalytic domain of human TET1; purchased Active Motif 31417
T1 sequence (Q8NFU7 1418-2136 limits assumed): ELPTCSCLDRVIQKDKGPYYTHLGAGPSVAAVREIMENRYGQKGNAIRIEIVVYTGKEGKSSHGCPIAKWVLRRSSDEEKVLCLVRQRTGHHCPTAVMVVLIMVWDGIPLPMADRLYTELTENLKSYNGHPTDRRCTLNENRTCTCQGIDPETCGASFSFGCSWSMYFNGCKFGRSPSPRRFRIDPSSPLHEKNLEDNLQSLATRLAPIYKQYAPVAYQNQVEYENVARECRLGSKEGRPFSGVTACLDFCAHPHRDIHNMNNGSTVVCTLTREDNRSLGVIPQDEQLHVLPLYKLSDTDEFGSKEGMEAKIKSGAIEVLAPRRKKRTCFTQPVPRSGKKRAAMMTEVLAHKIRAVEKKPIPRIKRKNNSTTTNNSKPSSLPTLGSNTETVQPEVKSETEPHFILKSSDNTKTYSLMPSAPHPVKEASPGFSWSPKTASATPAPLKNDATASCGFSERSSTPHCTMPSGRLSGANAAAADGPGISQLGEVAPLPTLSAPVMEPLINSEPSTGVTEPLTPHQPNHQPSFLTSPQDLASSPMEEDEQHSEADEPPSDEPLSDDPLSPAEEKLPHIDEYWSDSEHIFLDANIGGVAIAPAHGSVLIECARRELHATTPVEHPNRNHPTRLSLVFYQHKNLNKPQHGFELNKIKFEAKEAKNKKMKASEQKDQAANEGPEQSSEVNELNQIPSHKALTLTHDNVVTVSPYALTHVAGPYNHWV
Description: In vitro TET1 activity assay, LC-MS/MS quantitation of 5hmC. Type of assay: biochemical. To be noted: for reduced hmC production in comparison to DMSO control: 30 minute incubation; for TET inhibition (in words): TET1 catalytic domain, hemimethylated oligomer substrate, FIG. 2. As for the experimental part:
(§1) For in vitro TET assays, 10 pmol of 16-mer hemi-methylated synthetic dsDNA oligomer designed after the Rassfla tumor suppressor gene promotor (5′-AATTAGAA[5meC]GCTCCTT3′) was incubated with 2×TET reaction buffer (50 mM HEPES [pH 7.9], 100 mM NaCl, 75 μM Fe(NH4)2(SO4)2, 2 mM ascorbate, 10 μM α-ketoglutarate, 1 mM DTT), recombinant human TET1 or TET2 catalytic domain (0.2 μg, 2.3 pmol, 115 nM) and 5% DMSO (or inhibitor in DMSO) on a 20 μL scale. Timing was achieved by withholding protein until the ‘start’ of the incubation window. Reactions were completed on a dry block at 37° C. for 30 minutes. Reactions were terminated at the ‘end’ of the incubation window by transferring reaction tubes to dry ice to snap-freeze the reaction until all replicates were completed. Upon completion, all samples were heat-inactivated at 90° C. for 10 minutes and then dried entirely in SpeedVac concentrator. Sample were then prepared for LCMS or dot blot analysis. HPLC-ESI-MS/MS quantitation of 5mC and 5hmC.
Quantitation of 5hmC is based on methodology previously described in Seiler et al., with slight modification.^21 Dried enzymatic reaction samples were reconstituted with mQ-water and spiked with 1 pmol each of 5-Methyl-2′-deoxycytidine-d3 and 5-(Hydroxymethyl)-2′deoxycytidine-d3. Nucleotide digestion enzyme mix and buffer were added per product guidelines on a 20 μL scale. Samples were digested for 60 min at 37° C. on a dry block. Following digestion, samples were filtered on nanosep 10K Omega filters. The samples were then dried entirely and resuspended in 100 μL mQ-water for offline HPLC cleanup to enrich 5hmC. An Atlantis T3 column (Waters, 4.6×150 mm, 3 μm) was eluted at a flow of 0.9 mL/min with a linear gradient previously described of 5 mM NH4CHO2 buffer, pH 4.0 (A) and MeOH (B). Fractions containing 5meC and 5hmC were collected and pooled before analysis by isotope dilution HPLC-ESI-MS/MS. Pooled samples were dried and reconstituted in 2 mM ammonium formate buffer (NH4CHO2) with a Dionex Ultimate 3000UHPLC (Thermo Fisher) interfaced with a Thermo TSQ Quantis mass spectrometer (Thermo Fisher) flowing 2 mM NH4CHO2 (A) and ACN (B) at 15 μL/min through a Zorbax SB-C18 column (Agilent, 0.5×150 mm, 3 μm) with the gradients as previously described. 5meC and 5-d3-meC eluted at 5.1 minutes while 5hmC and 5-d3-hmC eluted at 3.5 minutes. Quantitation was completed monitoring MS/MS transitions m/z 242.1 [M+H^+]→m/z 126.1 [M-deoxyribose+H^+] for 5meC, m/z 245.2 [M+H^+]→m/z 129.0 [M-deoxyribose+H^+] for 5-d3-meC, m/z 258.1 [M+H^+]→m/z 142.1 [M-deoxyribose+H^+] for 5hmC, m/z 261.1 [M+H^+]→m z 145.1 [M-deoxyribose+H^+] for 5-d3-hmC. […]
Compounds 13b and 15 were taken forward and incubated with recombinant TET1 and TET2 protein to further evaluate their potential TET inhibitory activity. The compounds 13b and 15 were taken forward and evaluated in an in vitro TET activity assay with the enzymatically active catalytic domain of human TET1 using a hemimethylated synthetic oligomer substrate. Following a 30 minute enzymatic incubation time in the presence or absence of inhibitor, the reactions were halted through denaturation, and levels of 5mC 5hmC were quantified via LCMS/MS via direct isotope dilution (Seiler, C. L., et al., Biochemistry 2018, 57 (42), 6061-6069).

The target in assay [2] is T2, recombinant human TET2 catalytic domain (Homo sapiens, UniProt Q6N021).
T2 construct: recombinant human TET1 or TET2 catalytic domain; purchased Active Motif 31418
Description: In vitro TET2 activity assay, LC-MS/MS quantitation. Type of assay: biochemical. To be noted: 30 minute incubation, FIG. 3; read-out: IC50, TET2 mediated conversion of 5mC to 5hmC. As for the experimental part: as §1, with “Upon completion, all samples were heat-inactivated at 90° C. for 10 minutes and then dried entirely in SpeedVac concentrator. Sample were then prepared for LCMS or dot blot analysis.” left out
Quantitation of 5hmC is based on methodology previously described in Seiler et al., with slight modification.^21 Dried enzymatic reaction samples were reconstituted with mQ-water and spiked with 1 pmol each of 5-Methyl-2′-deoxycytidine-d3 and 5-(Hydroxymethyl)-2′deoxycytidine-d3. […] Quantitation was completed monitoring MS/MS transitions m/z 242.1 [M+H^+]→m/z 126.1 [M-deoxyribose+H^+] for 5meC, m/z 245.2 [M+H^+]→m/z 129.0 [M-deoxyribose+H^+] for 5-d3-meC, m/z 258.1 [M+H^+]→m/z 142.1 [M-deoxyribose+H^+] for 5hmC, m/z 261.1 [M+H^+]→m z 145.1 [M-deoxyribose+H^+] for 5-d3-hmC. […]

As to `Nc1nc(=O)n([C@H]2C[C@H](O)[C@@H](CO)O2)cc1C#CCCN(O)C(=O)CCC(=O)O` [Compound 13b, 4-((4-(4-amino-1-((2R,4S,5R)-4-hydroxy-5-(hydroxymethyl)tetrahydrofuran-2-yl)-2-oxo-1,2-dihydropyrimidin-5-yl)but-3-yn-1-yl)(hydroxy)amino)-4-oxobutanoic acid], the “lowered the relative levels of 5hmC” value in the assay on K562 cells is reported as 55±20%. The “reduced hmC production in comparison to DMSO control” value in assay [1] (10 μM inhibitor) was 22±5%; in assay [1] (100 μM inhibitor), 30±4%; in assay [1] (500 μM inhibitor), 85±3%. Further, in assay [1], the “TET inhibition (in words)” value is “dose-dependent TET inhibition”. The IC50 in assay [2] was roughly 1 mM.
Take `Nc1nc(=O)n([C@H]2C[C@H](O)[C@@H](CO)O2)cc1C#CCCN(O)C(=O)/C=C/C(=O)O` [Compound 15, (E)-4-((4-(4-amino-1-((2R,4S,5R)-4-hydroxy-5-(hydroxymethyl)tetrahydrofuran-2-yl)-2-oxo-1,2-dihydropyrimidin-5-yl)but-3-yn-1-yl)(hydroxy)amino)-4-oxobut-2-enoic acid]: in the assay on K562 cells, the “lowered the relative levels of 5hmC” value was found to be 47±45%. Also, in assay [1], the “TET inhibition (in words)” value was “dose-dependent TET inhibition”.
In the case of `COC(=O)/C=C/C(=O)N(O)CCC#Cc1cn([C@H]2C[C@H](O)[C@@H](CO)O2)c(=O)nc1N` [Compound 11, methyl (E)-4-((4-(4-amino-1-((2R,4S,5R)-4-hydroxy-5-(hydroxymethyl)-tetrahydrofuran-2-yl)-2-oxo-1,2-dihydropyrimidin-5-yl)but-3-yn-1-yl)(hydroxy)amino)-4-oxobut-2-enoate], the “lowered the relative levels of 5hmC” value in the assay with K562 cells is given as 30±8%.
Still for that read-out and setting: in the case of `Nc1nc(=O)n([C@H]2C[C@H](O)[C@@H](CO)O2)cc1C#CCCNC(=O)/C=C/C(=O)O` [Compound 14, (E)-4-((4-(4-amino-1-((2R,4S,5R)-4-hydroxy-5-(hydroxymethyl)tetrahydrofuran-2-yl)-2-oxo-1,2-dihydropyrimidin-5-yl)but-3-yn-1-yl)amino)-4-oxobut-2-enoic acid] it was 26±21%.
